Data on 5 molecules can be found in PMC9953353 (2023).

Test [1] has as its system Thi-5R-18 (DNA, aptamer) ATAGGAGTCACGACGACCAGAAGGGCAAATAGCATAATGGATCACATTAGATGAGCCCAGGCTATGTGCGTCTACCTCTTGACTAAT
Nature of the test: AuNP colorimetric aptasensor. The following applies: NaCl 0.25 M added for aggregation; 10^−7 M tested; response below one tenth of thiamethoxam at 10^−8 M.

In test [2] the test system is truncated Thi-5R-18 (DNA, aptamer) GAAGGGCAAATAGCATAATGGATCACATTAGATGAGCCCAGGCTATGTGCG
The test can be described thus: isothermal titration calorimetry. Particulars: 5 mM KCl, 100 mM NaCl, 1 mM MgCl2; 50 mM Tris-HCl, pH 7.4, 25 °C; Kd could not be fitted; thiamethoxam 1 mM. (In general: ITC needs no label: the signal is the heat of the interaction.)

For test [3], the system named is Thi-5R-18 (DNA, aptamer) ATAGGAGTCACGACGACCAGAAGGGCAAATAGCATAATGGATCACATTAGATGAGCCCAGGCTATGTGCGTCTACCTCTTGACTAAT
The test can be described thus: isothermal titration calorimetry. Particulars: 5 mM KCl, 100 mM NaCl, 1 mM MgCl2; 50 mM Tris-HCl, pH 7.4, 25 °C; 25 μM aptamer, 1 mM thiamethoxam.

As to `O=[N+]([O-])N=C1NCCN1Cc1ccc(Cl)nc1`, the binding entry in test [1] is “weak”. Regarding `CN1COCN(Cc2cnc(Cl)s2)C1=N[N+](=O)[O-]`, in test [2], the binding result is listed as “no”. For the same molecule, the Kd in test [3] was 49.35 µM. Regarding `O=C(O)CNCP(=O)(O)O`, in test [1], the binding result is recorded as “weak”. As for `CNC(=N[N+](=O)[O-])NCC1CCOC1` (stereo not drawn), the binding entry in test [1] is listed as “weak”. As to `CN/C(=N\[N+](=O)[O-])NCc1cnc(Cl)s1`, the binding result in test [1] is on record as “weak”.

What is called Kd is a measure of binding affinity in units of concentration. Low readings indicate a tighter complex, high ones a looser complex.
